From patent US20110306639A1, “HYDROCARBYLIDENE NITROHYDROZINECARBOXIMIDAMIDES AND A METHOD FOR MAKING THE SAME, AS WELL AS THEIR USES AS AN INSECTICIDE” (priority 2008, published 2011)
Where two headings read alike, the source gives them in different places.

Key:
myzus persicae = details: for numbers of death/total numbers: 24 h; for mortality(%) myzus persicae (600 μg/mL): in vivo
asparagus caterpillar = details: in vivo
hyalopterus pruni = details: 24 h
aphis gossypii = details: 24 h

| SMILES | mortality(%) myzus persicae (600 μg/mL) (myzus persicae) [%] | mortality(%) Helicoverpa armigera (500 μg/mL) (Helicoverpa armigera; in vivo) [%] | mortality(%) asparagus caterpillar (500 μg/mL) (asparagus caterpillar) [%] | mortality(%) Helicoverpa armigera (500 μg/mL) (Helicoverpa armigera; 500 μg/mL, 48 hours) [%] | other results |
| --- | --- | --- | --- | --- | --- |
| CCCCCCC=NNC(=N[N+](=O)[O-])NCc1ccc(Cl)nc1 [Compound 50] | 100 | 20 | 0 | – | numbers of death/total numbers (myzus persicae; 25 μg/mL): 78/78; numbers of death/total numbers (myzus persicae; 50 μg/mL): 91/92; numbers of death/total numbers (myzus persicae; 100 μg/mL): 87/87; numbers of death/total numbers (myzus persicae; 200 μg/mL): 103/107; numbers of death/total numbers (myzus persicae; 400 μg/mL): 96/96; numbers of death/total numbers (hyalopterus pruni; 25 μg/mL): 104/108; numbers of death/total numbers (hyalopterus pruni; 50 μg/mL): 98/102; numbers of death/total numbers (hyalopterus pruni; 100 μg/mL): 101/101; numbers of death/total numbers (hyalopterus pruni; 200 μg/mL): 110/110; numbers of death/total numbers (hyalopterus pruni; 400 μg/mL): 102/102; numbers of death/total numbers (aphis gossypii; 3.13 μg/mL): 156/157; numbers of death/total numbers (aphis gossypii; 12.5 μg/mL): 150/150; numbers of death/total numbers (aphis gossypii; 50 μg/mL): 245/245 |
| CCCCC=NNC(=N[N+](=O)[O-])NCCC [Compound 51] | 13.3 | – | 10 | 30 | – |
| CCCCC=NNC(=N[N+](=O)[O-])NCCCC [Compound 52] | 81.0 | – | 60 | 20 | – |
| C=CCNC(=N[N+](=O)[O-])NN=CCCCC [Compound 53] | 81.0 | – | 80 | 40 | – |
| C#CCNC(=N[N+](=O)[O-])NN=CCCCC [Compound 54] | 47.6 | – | 10 | 40 | – |
| CCCCC=NNC(=N[N+](=O)[O-])NCc1ccccc1 [Compound 55] | 49.2 | – | 30 | 10 | – |
| CCNC(=N[N+](=O)[O-])NN=Cc1ccc(N(C)C)cc1 [Compound 69] | 90.6 | 30 | 80 | – | – |
| C=CCNC(=N[N+](=O)[O-])NN=Cc1ccc(N(C)C)cc1 [Compound 72] | 23.6 | 50 | 50 | – | – |
| CCCNC(=N[N+](=O)[O-])NN=Cc1ccccc1OC [Compound 73] | 20.2 | – | 70 | 50 | – |
| CCCCNC(=N[N+](=O)[O-])NN=Cc1ccccc1OC [Compound 74] | 40.4 | – | 30 | 0 | – |
| COc1ccccc1C=NNC(=N[N+](=O)[O-])NCc1ccccc1 [Compound 75] | 92.8 | – | 90 | 30 | – |
| C=CCNC(=N[N+](=O)[O-])NN=Cc1ccccc1OC [Compound 76] | 3.4 | – | 80 | 40 | – |
| C#CCNC(=N[N+](=O)[O-])NN=Cc1ccccc1OC [Compound 77] | 4.2 | – | 50 | 30 | – |
| CCCNC(=N[N+](=O)[O-])NN=Cc1ccccc1Cl [Compound 90] | 41.2 | 10 | 50 | – | – |
| CCCCNC(=N[N+](=O)[O-])NN=Cc1ccccc1Cl [Compound 91] | 1.2 | 0 | 80 | – | – |
| O=[N+]([O-])N=C(NCc1ccccc1)NN=Cc1ccccc1Cl [Compound 92] | 45.8 | 50 | 70 | – | – |
| C#CCNC(=N[N+](=O)[O-])NN=Cc1ccccc1Cl [Compound 94] | 31.2 | 50 | 60 | – | – |
| CCOc1ccc(C=NNC(=N[N+](=O)[O-])NC)cc1OC [Compound 95] | 58.0 | 40 | 80 | – | – |
| CCCNC(=N[N+](=O)[O-])NN=Cc1ccc(OCC)c(OC)c1 [Compound 96] | 73.4 | 20 | 50 | – | – |
| CCCCNC(=N[N+](=O)[O-])NN=Cc1ccc(OCC)c(OC)c1 [Compound 97] | 35.8 | 40 | 70 | – | – |
| CCOc1ccc(C=NNC(=N[N+](=O)[O-])NCc2ccccc2)cc1OC [Compound 98] | 13.3 | 40 | 10 | – | – |
| C=CCNC(=N[N+](=O)[O-])NN=Cc1ccc(OCC)c(OC)c1 [Compound 99] | 45.8 | 50 | 30 | – | – |
| CCCNC(=N[N+](=O)[O-])NN=Cc1ccc(F)cc1 [Compound 100] | 20.3 | 20 | 90 | – | – |
